Assay results from PMC10771590, “Pathway crosstalk between the central metabolic and heme biosynthetic pathways in Phanerochaete chrysosporium” (Applied Microbiology and Biotechnology, 2024).
Like-named read-outs stand apart in the source and are kept apart here.

Legend:
[1] = test system: Glyceraldehyde 3-phosphate dehydrogenase (GAPDH) of Plasmodium falciparum; parameters: method as in Campanale et al. 2003; settings: ref Campanale et al. 2003; cited from earlier work
PcGAPDH = molecular target: T1, PcGAPDH (Phanerodontia chrysosporium, UniProt Q01982); assay: Peroxidative activity of GAPDH–hemin complex (TMB oxidation); type: biochemical, Phanerochaete chrysosporium; settings: on binding PcGAPDH in vitro, 1:1 or 1:2 PcGAPDH:hemin, 100 μM H2O2
T1 construct: 6xHis-tag (pET-30) (cleaved yes); made in house; host or cells: E. coli BL21(DE3)pLysS
T1 sequence (Q01982 whole entry): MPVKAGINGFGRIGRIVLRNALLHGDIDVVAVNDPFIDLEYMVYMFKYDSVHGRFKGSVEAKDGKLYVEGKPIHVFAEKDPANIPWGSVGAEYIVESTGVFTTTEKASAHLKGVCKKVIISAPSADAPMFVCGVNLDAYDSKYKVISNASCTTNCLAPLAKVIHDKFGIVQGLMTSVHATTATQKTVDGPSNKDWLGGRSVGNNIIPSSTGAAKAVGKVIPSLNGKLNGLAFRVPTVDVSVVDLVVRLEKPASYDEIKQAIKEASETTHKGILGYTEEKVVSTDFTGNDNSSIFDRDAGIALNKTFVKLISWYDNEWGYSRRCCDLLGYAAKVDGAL
Method: Peroxidative activity of the PcGAPDH–hemin complex was investigated by using 3, 3′, 5, 5′-tetramethylbenzidine (TMB) as oxidation substrate. Before the assay, 100 μM PcGAPDH was incubated with hemin at 1:1 or 1:2 stoichiometry for 30 min at 4 °C in the dark. Reaction mixtures (1 ml) contained 40 mM Tris–HCl (pH 7.5), 125 μM TMB, 100 μM hydrogen peroxide, and 1 μM PcGAPDH with hemin at 1:1 or 1:2 stoichiometry. As a control, 1 or 2 μM hemin without PcGAPDH was used. The reaction was monitored at 655 nm upon the formation of benzidine cation radical for 1 min.
Fig. 6 Peroxidative activity of GAPDH–hemin complex. Peroxidative activity of GAPDH–hemin complex was investigated by using TMB as an oxidation substrate. Reaction mixtures contained 40 mM Tris/HCl (pH 7.5), 125 μM TMB, 100 μM hydrogen peroxide, 1 μM PcGAPDH with hemin at 1:1 (a) or 1:2 (b) stoichiometry. As a control, 1 (c) or 2 (d) μM hemin without PcGAPDH was used. The reaction was monitored at 655 nm for 1 min

rPcCS = molecular target: T2, rPcCS (Phanerodontia chrysosporium, UniProt Q0EAA7); assay: Heme-derived time-dependent inhibition of PcCS; type: biochemical, Phanerochaete chrysosporium; settings: 30-min preincubation of PcCS with hemin at 4 °C; read-out: half-maximal inhibitory concentration (IC50)
T2 sequence (Q0EAA7 1-446): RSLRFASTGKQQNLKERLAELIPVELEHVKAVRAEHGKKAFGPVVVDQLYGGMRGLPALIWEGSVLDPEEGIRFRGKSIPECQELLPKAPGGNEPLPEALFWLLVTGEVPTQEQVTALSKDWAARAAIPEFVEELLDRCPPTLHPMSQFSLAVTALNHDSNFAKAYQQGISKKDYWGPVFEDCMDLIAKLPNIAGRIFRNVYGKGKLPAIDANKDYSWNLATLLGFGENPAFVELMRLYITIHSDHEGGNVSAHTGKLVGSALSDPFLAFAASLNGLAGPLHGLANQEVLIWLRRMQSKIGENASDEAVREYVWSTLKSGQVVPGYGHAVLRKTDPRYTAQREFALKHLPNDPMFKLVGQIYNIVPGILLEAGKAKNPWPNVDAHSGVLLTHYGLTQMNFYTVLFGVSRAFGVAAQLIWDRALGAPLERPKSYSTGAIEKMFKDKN
Method: Therefore, the data were expressed as relative values against the controls. When 5.7 μM hemin was used, citrate formed was determined by HPLC because of spectroscopic interference with the Soret absorption. All experiments were repeated at least three times, and standard deviations were within 5% in each plot.
(§1) Fig. 5 Inhibitory effect of hemin on PcCS reaction. […] Reaction mixtures contained 1.5 nM rPcCS, 40 mM Tris-HCl (pH 8.5), and 120 μM DTNB. Fixed substrate was added at 12 μM and variable substrate at 3–12 μM. […] Insets: secondary plots of each slope of Lineweaver–Burk plots against the concentration of hemin for determining inhibition constants.

[2] = molecular target: T3, rPcCS (mitochondrial citrate synthase) (Phanerodontia chrysosporium, UniProt Q0EAA7); assay: CS assay (DTNB method) and steady-state kinetic analysis; type: biochemical, Phanerochaete chrysosporium; settings: for Ki: 0–2.5 μM hemin
T3 sequence (Q0EAA7 1-446): T2 sequence (Q0EAA7 1-446)
Method: CS was assayed by the 5, 5′-dithiobis-2-nitrobenzoic acid (DTNB) method, as described previously (Srere et al. [1963]). […] CS catalyzes the reaction of OAA with AcCoA, generating citrate and CoA. Thus, reactions were monitored by the amount of released CoA, which was followed at 412 nm (ε 13 600 M^–1cm^–1) by the formation of 2-nitro-5-mercaptobenzoic acid, via the reaction of CoA with DTNB. Reactions were monitored for 1 min, and initial velocity was determined. […] Inhibition studies were carried out in the presence of 0–2.5 μM hemin as described above. Kinetic parameters were determined from Lineweaver–Burk plots, and Ki values were determined from the secondary plot of the slopes of the Lineweaver–Burk plots. Hemin and OAA solutions were prepared immediately prior to use.
as §1

P. chrysosporium = assay: Growth of P. chrysosporium with exogenously added hemin; type: cell-based, Phanerochaete chrysosporium
Method: P. chrysosporium (ATCC 34541) was grown from conidial inocula at 37 °C in a stationary culture (20-ml medium in a 200-ml Erlenmeyer flask). The medium (pH 4.5) used in this study was a ligninolytic medium as previously described (Shimizu et al. [2005]; Kirk et al. [1978]), with 1% glucose as carbon source and 1.2 mM ammonium tartrate as nitrogen source.
Taking these observations together, a metabolic “pathway crosstalk” is proposed and summarized in Scheme 1. In P. chrysosporium, heme plays an important role as a prosthetic molecule for many cellular processes, in particular, ligninolytic enzymes. Upon addition of exogenous aromatic compounds, fungal cellular metabolism was dramatically shifted from basic energy metabolism to “defensive” or “productive” metabolism. Glucose uptake and consumption and NADPH and succinyl-CoA production were activated in response to exogenous aromatic compounds. Furthermore, the heme synthetic pathway was activated (Shimizu et al. [2005]). Immediate activation of the heme synthesis against aromatics is crucial for the fungus to produce aromatics-degrading enzymes. On the other hand, free heme is highly toxic to the cell. Thus, metabolic overflow of heme biosynthesis causes highly stressful conditions in the mitochondria. The TCA cycle, including CS, is located in the mitochondrial matrix space (Mcalister-Henn and Small [1997]). […]

## C=CC1=C(C)c2cc3[nH]c(cc4nc(cc5[nH]c(cc1n2)c(C)c5CCC(=O)O)C(CCC(=O)O)=C4C)c(C)c3C=C.[Fe+3] [hemin]
[1]
  Ki: 0.2 µM
PcGAPDH
  TMB-oxidizing ability of heme: suppressed
rPcCS
  IC50: 1 µM
[2]; hemin on PcCS versus inhibition constants larger than 0.1 mM
  inhibitory effect relative to reported inhibitors of other eukaryotic CSs: 10 times
[2]; rPcCS, double-reciprocal plots
  mode of inhibition for AcCoA: competitive inhibitor
  mode of inhibition for OAA: non-competitive inhibitor
[2]; read-out: Ki AcCoA, rPcCS, pH 8.5, AcCoA as variable substrate
  Ki: 5.8 µM
[2]; read-out: Ki OAA, rPcCS, pH 8.5, OAA as variable substrate
  Ki: 8.7 µM
P. chrysosporium; 1.0 μM hemin added to culture medium in the dark (data not shown)
  growth of P. chrysosporium: completely shut down
P. chrysosporium; exogenous addition of hemin at sub-μM concentrations
  growth of P. chrysosporium: completely shut down
